Results published in publication PMC13276840, “Deacetylation of β‑Mannans by Two Complementary Carbohydrate Esterases from the Human Gut Microbe Bacteroides cellulosilyticus” (Biochemistry, 2026).

Columns and labels:
BcCE25 = target: T1, BcCE25 (Bacteroides cellulosilyticus, UniProt E2NCW7); assay: transacetylation, MALDI-ToF MS and NMR; assay type: biochemical; settings: acyl acceptor with vinyl acetate donor, 200 nM enzyme, 10 mM sodium phosphate pH 5.9, 25 °C
T1 construct: gene BACCELL_02125; N-terminal signal peptide removed, His tag (removal not mentioned), pET30a(+), synthetic gene, E. coli BL21 STAR
T1 sequence (E2NCW7 20-263): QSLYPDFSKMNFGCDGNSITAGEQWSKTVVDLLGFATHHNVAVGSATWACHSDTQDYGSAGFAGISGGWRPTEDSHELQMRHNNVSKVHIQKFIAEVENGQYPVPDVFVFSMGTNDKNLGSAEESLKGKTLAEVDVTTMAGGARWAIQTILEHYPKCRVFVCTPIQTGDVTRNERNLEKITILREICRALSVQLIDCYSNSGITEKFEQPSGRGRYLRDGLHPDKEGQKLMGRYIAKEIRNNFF

BcCE7 = target: T2, BcCE7 (Bacteroides cellulosilyticus, UniProt E2NDM1); assay: transacetylation, MALDI-ToF MS; assay type: biochemical; settings: acyl acceptor with vinyl acetate donor, […] enzyme, […] sodium phosphate pH […] °C
T2 construct: gene BACCELL_02381; N-terminal signal peptide removed, His tag (removal not mentioned), pET28a(+), synthetic gene, E. coli BL21 STAR
T2 sequence (E2NDM1 7-414 limits assumed): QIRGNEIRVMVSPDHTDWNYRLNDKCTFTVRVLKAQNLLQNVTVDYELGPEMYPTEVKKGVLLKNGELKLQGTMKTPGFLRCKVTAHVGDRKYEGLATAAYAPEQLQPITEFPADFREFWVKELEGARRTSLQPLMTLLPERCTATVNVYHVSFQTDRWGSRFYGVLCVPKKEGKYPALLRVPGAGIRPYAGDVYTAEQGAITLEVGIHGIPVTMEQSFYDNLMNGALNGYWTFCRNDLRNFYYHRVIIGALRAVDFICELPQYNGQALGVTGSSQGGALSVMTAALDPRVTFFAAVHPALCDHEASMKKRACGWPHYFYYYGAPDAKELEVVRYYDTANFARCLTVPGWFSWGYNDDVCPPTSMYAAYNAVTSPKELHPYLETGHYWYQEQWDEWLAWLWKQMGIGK

For `OC[C@H]1O[C@@H](O[C@H]2[C@H](O)[C@H](O)[C@H](O[C@H]3[C@H](O)[C@H](O)[C@H](O[C@H]4[C@H](O)[C@H](O)C(O)O[C@@H]4CO)O[C@@H]3CO)O[C@@H]2CO)[C@@H](O)[C@@H](O)[C@@H]1O` (some centres unmarked) [mannotetraose], the “transacetylation, MALDI-ToF MS and NMR” value (BcCE25) was “BcCE25 transferred up to three acetylations” and the “transacetylation, MALDI-ToF MS” value (BcCE7) was “On mannotetraose, BcCE7 transferred mainly one acetyl group”.
